This is an account of results in the SangsterLogP compilation.

This series can be described thus: method code SF-AS, from DOI: 10.1006/pest.1994.1057.

Usually logP stands for the decadic logarithm of the partition coefficient of the neutral form, usually between octanol and water. Higher therefore signals higher lipophilicity. The compound `O=[N+]([O-])C=C1SCCN1Cc1ccc(Cl)nc1` gave a log partition coefficient (logP) of 0.65.

In the case of `O=[N+]([O-])N=C1NCCN1Cc1cccnc1`, the lipophilicity (logP) was -0.19.

Take `CN1CCN(Cc2ccc(Cl)nc2)C1=N[N+](=O)[O-]`: the logP was 0.26.

`O=[N+]([O-])C=C1NCCCN1Cc1ccc(Cl)nc1` displayed a logP of -0.62.

On to `O=[N+]([O-])C=C1NCCN1Cc1ccccn1`, for which the logP is -0.87.

For the compound `N#CN=C1NCCN1Cc1ccc(Cl)nc1`, the lipophilicity (logP) is 0.77.

`O=[N+]([O-])C=C1NCCN1Cc1ccc(Cl)cc1` displayed a lipophilicity (logP) of 0.99.

`Cc1ccc(CN2CCNC2=C[N+](=O)[O-])cn1` showed a logP of -0.59.

Regarding `O=[N+]([O-])/C=C1/NCCN1Cc1cccnc1`, the logP was -1.02.

As for `O=[N+]([O-])/C=C1\NCCN1Cc1ccc(Cl)nc1`, the lipophilicity (logP) was -0.19.

Regarding `O=[N+]([O-])/C=C1\NCCN1Cc1ccccc1`, the logP is 0.33.

For `O=[N+]([O-])C=C1NCCN1CCc1ccc(Cl)nc1`, the logP was -0.23.

Compound `O=[N+]([O-])C=C1NCCN1c1ccc(Cl)nc1` returned a log partition coefficient (logP) of -0.23.

Turning to `O=[N+]([O-])C=C1NCCN1Cc1ccncc1`, the logP was -1.05.
